Results as given in ChEMBL document CHEMBL6092143, “Synthesis and evaluation of lipoic acid - donepezil hybrids for Alzheimer's disease using a straightforward strategy” (Bioorg Med Chem Lett, 2024).
Calls of active or inactive are those of the source. No cut-off for these calls is given here.

What was measured:
[1] = Antioxidant activity assessed as trolox equivalent of ORAC radical scavenging activity incubated for 15 mins by fluorescence based assay; assay type: functional
[2] = system: SK-N-BE(2); test: Inhibition of t-BHP-induced ROS production in human SK-N-BE(2) cells at 100 uM incubated for 3 hrs by DCFH-DA probe based analysis; assay type: functional, cell-based
[3] = molecular target: Cholinesterase (Homo sapiens, UniProt P06276); test: Inhibition of human BChE by Ellman's method
Sequence of Cholinesterase (P06276 whole entry): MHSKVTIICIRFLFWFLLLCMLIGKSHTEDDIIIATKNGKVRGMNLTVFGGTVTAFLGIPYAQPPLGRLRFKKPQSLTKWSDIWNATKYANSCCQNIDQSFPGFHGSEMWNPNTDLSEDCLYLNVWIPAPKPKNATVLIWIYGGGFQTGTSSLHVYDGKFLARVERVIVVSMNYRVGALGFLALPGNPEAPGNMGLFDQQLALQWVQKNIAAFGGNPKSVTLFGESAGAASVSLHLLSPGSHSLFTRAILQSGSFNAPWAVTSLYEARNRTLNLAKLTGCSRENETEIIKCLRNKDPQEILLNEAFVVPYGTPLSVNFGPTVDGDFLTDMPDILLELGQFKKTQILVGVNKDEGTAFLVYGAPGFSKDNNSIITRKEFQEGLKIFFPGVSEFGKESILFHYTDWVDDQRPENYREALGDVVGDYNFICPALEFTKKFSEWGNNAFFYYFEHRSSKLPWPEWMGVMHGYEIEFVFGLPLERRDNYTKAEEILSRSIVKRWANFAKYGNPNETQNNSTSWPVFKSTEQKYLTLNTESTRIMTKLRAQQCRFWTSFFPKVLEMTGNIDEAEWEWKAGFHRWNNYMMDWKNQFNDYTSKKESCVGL

[4] = Antioxidant activity assessed as ABTS radical scavenging activity measured after 6 mins by absorbance based assay; assay type: functional
[5] = Antioxidant activity assessed as DPPH radical scavenging activity incubated for 2 hrs under dark condition by absorbance based assay; assay type: functional
[6] = system: HepG2; test: Cytotoxicity against human HepG2 cells upto 100 uM incubated for 3 hrs by MTT assay; settings: hepg2, 3 h
[7] = system: SK-N-BE(2); test: Cytotoxicity against human SK-N-BE(2) cells upto 100 uM incubated for 3 hrs by MTT assay; assay type: toxicity, cell-based
[8] = molecular target: Acetylcholinesterase (Homo sapiens, UniProt P22303); test: Inhibition of human erythrocyte AChE using acetylthiocholine iodide as substrate preincubated for 10 mins followed by substrate addition measured after 15 mins by Ellman's method
Sequence of Acetylcholinesterase (P22303 whole entry): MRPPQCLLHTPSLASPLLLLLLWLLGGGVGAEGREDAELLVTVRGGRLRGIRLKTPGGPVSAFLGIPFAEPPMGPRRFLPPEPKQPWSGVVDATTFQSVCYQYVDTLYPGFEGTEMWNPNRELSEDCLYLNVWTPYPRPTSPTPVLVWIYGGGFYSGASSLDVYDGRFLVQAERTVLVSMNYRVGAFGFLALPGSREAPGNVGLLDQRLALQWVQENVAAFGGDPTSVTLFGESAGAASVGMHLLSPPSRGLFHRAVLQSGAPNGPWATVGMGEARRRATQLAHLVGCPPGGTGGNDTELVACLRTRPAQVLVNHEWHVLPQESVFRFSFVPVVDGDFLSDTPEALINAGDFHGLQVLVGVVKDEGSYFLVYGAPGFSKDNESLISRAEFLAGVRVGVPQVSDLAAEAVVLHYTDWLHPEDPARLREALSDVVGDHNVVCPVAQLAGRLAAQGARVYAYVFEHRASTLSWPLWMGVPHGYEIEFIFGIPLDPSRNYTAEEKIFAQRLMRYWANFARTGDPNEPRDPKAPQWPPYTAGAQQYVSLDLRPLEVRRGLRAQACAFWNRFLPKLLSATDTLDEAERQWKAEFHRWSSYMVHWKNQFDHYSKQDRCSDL

[9] = Solubility of compound; assay type: physicochemical

Structure (SMILES) | Activity [1] | ROS inhibition activity (qualitative) [2] | IC50 [3] [µM] | EC50 [4] [µM] | EC50 [5] [µM] | Activity [6] | Activity [7] | IC50 [8] [µM] | solubility [9]
COc1cc2c(cc1O)C(=O)C(CC1CCN(Cc3ccccc3)CC1)C2 (stereo unspecified) | 9.4 | inactive | 34.5 | 152 | > 400 | Non-toxic | Non-toxic | 0.872 | 
O=c1c(O)c(-c2ccc(O)c(O)c2)oc2cc(O)cc(O)c12 [QUERCETIN] | 4 |  |  | 3.4 | 13.8 |  |  |  | 
Cc1c(C)c2c(c(C)c1O)CC[C@@](C)(CCC[C@H](C)CCC[C@H](C)CCCC(C)C)O2 [ALPHA-TOCOPHEROL] | 1 | Active |  | 15.5 | 27.5 | Non-toxic | Non-toxic |  | 
COc1cc2c(cc1OC(=O)CCCCC1CCSS1)C(=O)C(CC1CCN(Cc3ccccc3)CC1)C2 (stereo unspecified) | < 0.5 | inactive | 3.99 | > 400 | > 400 | Non-toxic | Non-toxic | 0.0278 | Insoluble
COc1cc2c(cc1OCCCCCC1CCSS1)C(=O)C(CC1CCN(Cc3ccccc3)CC1)C2 (stereo unspecified) | < 0.5 | Active; More Pronounced Effect Than Lipoic Acid | 1.48 | > 400 | > 400 | Non-toxic | Non-toxic | 0.00763 | 
O=C(O)CCCC[C@@H]1CCSS1 [THIOCTIC ACID] |  | Active |  |  |  | Non-toxic | Non-toxic |  | 
COc1cc2c(cc1OCCCCCC1CCSS1)CC(CC1CCN(Cc3ccccc3)CC1)C2=O (stereo unspecified) | < 0.5 | Active; More Pronounced Effect Than Lipoic Acid | 3.26 | > 400 | > 400 | Non-toxic | Non-toxic | 0.00912 | Insoluble
O=C1c2cc(O)c(O)cc2CC1CC1CCN(Cc2ccccc2)CC1 (stereo unspecified) | 2.2 | Active; Activity Comparable To Vitamin E | 246 | 12.3 | 29.5 | Non-toxic | Non-toxic | 1.81 | soluble
COc1cc2c(cc1O)CC(CC1CCN(Cc3ccccc3)CC1)C2=O (stereo unspecified) | 2.1 |  | 35.8 | 8.5 | 32.5 |  |  | 0.773 | 
COc1cc2c(cc1OC)C(=O)C(CC1CCN(Cc3ccccc3)CC1)C2 (stereo unspecified) [DONEPEZIL] | < 0.5 | inactive |  | > 1000 | > 1000 | Non-toxic | Non-toxic |  | 
